According to patent US20260028354A1, “TETRAHYDRONAPHTHALENE DERIVATIVES AS ESTROGEN RECEPTOR DEGRADERS” (REGENT OF THE UNIVERSITY OF MICHIGAN, priority 2022, published 2026):
Where two headings read alike, the source gives them in different places.

Columns and labels:
[1] = Cell growth assay (WST-8) for "B" compounds; assay type: cell-based; conditions: read-out: Cell growth Inhibition in T47D cell line IC50
In short: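 Four-day compound exposure of cells plated at 1500/well the day before. Read-out is WST-8 (10%, 2.5 h, 37 °C) absorbance at 450 nm, normalized to vehicle control over three independent repeats.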

ER = ER (Homo sapiens (Human), UniProt P03372); test: In-cell western blot analysis of ER for "B" compounds; assay type: cell-based; conditions: 16 hours, read-out: ICW DC50
In short: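 ER levels given as a percentage of untreated/DMSO-treated wells (100%). Detection used primary antibodies for 2 h at room temperature followed by 680 and 800 nm fluorescent secondaries at 1:1000 for 1 h, read by LI-COR imaging.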

ER, sequence (P03372 whole entry): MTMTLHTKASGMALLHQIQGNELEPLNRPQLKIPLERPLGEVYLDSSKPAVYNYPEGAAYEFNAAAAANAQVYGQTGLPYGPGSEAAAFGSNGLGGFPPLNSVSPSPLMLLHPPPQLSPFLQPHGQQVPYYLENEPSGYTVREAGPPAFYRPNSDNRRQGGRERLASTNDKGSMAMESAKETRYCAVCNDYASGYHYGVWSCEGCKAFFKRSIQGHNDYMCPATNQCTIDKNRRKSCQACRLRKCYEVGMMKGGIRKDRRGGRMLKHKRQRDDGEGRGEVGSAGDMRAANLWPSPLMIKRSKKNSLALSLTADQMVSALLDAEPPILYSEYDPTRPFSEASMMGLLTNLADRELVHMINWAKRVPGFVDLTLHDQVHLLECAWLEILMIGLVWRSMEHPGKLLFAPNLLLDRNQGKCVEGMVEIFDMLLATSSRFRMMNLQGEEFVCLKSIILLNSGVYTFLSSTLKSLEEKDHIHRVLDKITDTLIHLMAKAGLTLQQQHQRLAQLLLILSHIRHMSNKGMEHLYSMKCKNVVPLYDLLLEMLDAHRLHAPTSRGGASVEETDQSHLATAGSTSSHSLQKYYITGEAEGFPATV

Compound: O=C1CC[C@H](N2Cc3c(ccc4c3OC[C@H]3CN(CC5COC6(CCN(c7ccc([C@@H]8c9cc(Cl)c(O)cc9CC[C@@H]8c8ccccc8)cc7)CC6)OC5)CCN43)C2=O)C(=O)N1 [Compound B340, (S)-3-((R)-7-((9-(4-((1R,2S)-7-chloro-6-hydroxy-2-phenyl-1,2,3,4-tetrahydronaphthalen-1-yl)phenyl)-1,5-dioxa-9-azaspiro[5.5]undecan-3-yl)methyl)-1-oxo-1,3,5,5a,6,7,8,9-octahydro-2H-pyrazino[1′,2′:4,5][1,4]oxazino[2,3-e]isoindol-2-yl)piperidine-2,6-dione]
- IC50 ([1]; T47D, T47D cell line): 1 to 10 nM
- DC50 (ER): 10 to 100 nM

Compound: O=C1CC[C@H](N2Cc3c(ccc4c3OC[C@H]3CN(CC(=O)OC5CCN(c6ccc([C@@H]7c8ccc(O)cc8CC[C@@H]7c7ccccc7)cc6)CC5)CCN43)C2=O)C(=O)N1 [Compound B341]
- IC50 ([1]; T47D, T47D cell line): < 1 nM
- DC50 (ER): < 10 nM

Compound: O=C1CCC(N2Cc3cc4c(cc3C2=O)OC[C@@H]2CN(CC(=O)OC3CCN(c5ccc([C@@H]6c7ccc(O)cc7CC[C@@H]6c6ccccc6)cc5)CC3)CCN42)C(=O)N1 (stereo partly drawn) [Compound B342, 1-(4-((1R,2S)-6-hydroxy-2-phenyl-1,2,3,4-tetrahydronaphthalen-1-yl)phenyl)piperidin-4-yl 2-((4aS)-9-(2,6-dioxopiperidin-3-yl)-8-oxo-1,2,4a,5,9,10-hexahydro-8H-pyrazino[1′,2′:4,5][1,4]oxazino[2,3-f]isoindol-3(4H)-yl)acetate]
- IC50 ([1]; T47D, T47D cell line): 1 to 10 nM
- DC50 (ER): < 10 nM

Compound: O=C1CCC(N2Cc3c(ccc4c3OCC43CCN(CC(=O)OC4CCN(c5ccc([C@@H]6c7ccc(O)cc7CC[C@@H]6c6ccccc6)cc5)CC4)CC3)C2=O)C(=O)N1 (stereo partly drawn) [Compound B343, 1-(4-((1R,2S)-6-hydroxy-2-phenyl-1,2,3,4-tetrahydronaphthalen-1-yl)phenyl)piperidin-4-yl 2-(7-((S)-2,6-dioxopiperidin-3-yl)-6-oxo-7,8-dihydro-2H,6H-spiro[furo[2,3-c]isoindolc-3,4′-piperidin]-1′-yl)acetate]
- IC50 ([1]; T47D): 1 to 10 nM
- DC50 (ER): > 100 nM

Compound: O=C1CCC(Nc2ccc(C3CCN(CC4COC5(CCN(c6ccc([C@@H]7c8ccc(O)cc8CC[C@@H]7c7ccccc7)cc6)CC5)C4)CC3)cc2)C(=O)N1 (stereo partly drawn) [Compound B344, 3-((4-(1-((8-(4-((1R,2S)-6-hydroxy-2-phenyl-1,2,3,4-tetrahydronaphthalen-1-yl)phenyl)-1-oxa-8-azaspiro[4.5]decan-3-yl)methyl)piperidin-4-yl)phenyl)amino)piperidine-2,6-dione]
- IC50 ([1]; T47D, T47D cell line): 1 to 10 nM
- DC50 (ER): > 100 nM

Compound: O=C1CCC(Nc2ccc(C3CCN(CC4COC5(CCN(c6ccc([C@@H]7c8ccc(O)cc8CC[C@@H]7c7ccccc7)cc6)CC5)OC4)CC3)cc2)C(=O)N1 (stereo partly drawn) [Compound B345, 3-((4-(1-((9-(4-((1R,2S)-6-hydroxy-2-phenyl-1,2,3,4-tetrahydronaphthalen-1-yl)phenyl)-1,5-dioxa-9-azaspiro[5.5]undecan-3-yl)methyl)piperidin-4-yl)phenyl)amino)piperidine-2,6-dione]
- IC50 ([1]; T47D, T47D cell line): 1 to 10 nM
- DC50 (ER): > 100 nM

Compound: O=C1CCC(N2Cc3c(ccc4c3OCC43CCN(CC4COC5(CN(c6ccc([C@@H]7c8ccc(O)cc8CC[C@@H]7c7ccccc7)cc6)C5)OC4)CC3)C2=O)C(=O)N1 (stereo partly drawn) [Compound B346, 3-(1′-((2-(4-((1R,2S)-6-hydroxy-2-phenyl-1,2,3,4-tetrahydronaphthalen-1-yl)phenyl)-5,9-dioxa-2-azaspiro[3.5]nonan-7-yl)methyl)-6-oxo-6,8-dihydro-2H,7H-spiro[furo[2,3-e]isoindole-3,4′-piperidin]-7-yl)piperidine-2,6-dione]
- IC50 ([1]; T47D): 1 to 10 nM
- DC50 (ER): 10 to 100 nM

Compound: O=C1CC[C@H](NC(=O)c2ccc3c(n2)OC[C@H]2CN(CC4COC5(CN(c6ccc([C@@H]7c8ccc(O)cc8CC[C@@H]7c7ccccc7)cc6)C5)OC4)CCN32)C(=O)N1 [Compound B347, (R)-N-((S)-2,6-dioxopiperidin-3-yl)-3-((2-(4-((1R,2S)-6-hydroxy-2-phenyl-1,2,3,4-tetrahydronaphthalen-1-yl)phenyl)-5,9-dioxa-2-azaspiro[3.5]nonan-7-yl)methyl)-1,2,3,4,4a,5-hexahydropyrazino[1,2-d]pyrido[2,3-b][1,4]oxazine-8-carboxamide]
- IC50 ([1]; T47D, T47D cell line): < 1 nM
- DC50 (ER): 10 to 100 nM

Compound: O=C1CCC(N2Cc3c(ccc4c3OCC43CCN(CC4COC5(CCN(c6ccc([C@@H]7c8ccc(O)cc8CC[C@@H]7c7ccccc7)cc6)CC5)O4)CC3)C2=O)C(=O)N1 (stereo partly drawn) [Compound B350, 3-(1′-((8-(4-((1R,2S)-6-hydroxy-2-phenyl-1,2,3,4-tetrahydronaphthalen-1-yl)phenyl)-1,4-dioxa-8-azaspiro[4.5]decan-2-yl)methyl)-6-oxo-6,8-dihydro-2H,7H-spiro[furo[2,3-e]isoindole-3,4′-piperidin]-7-yl)piperidine-2,6-dione]
- IC50 ([1]; T47D): > 10 nM
- DC50 (ER): 10 to 100 nM

Compound: O=C1CCC(N2Cc3cc4c(cc3C2=O)CN(CC2COC3(CCN(c5ccc([C@@H]6c7ccc(O)cc7CC[C@@H]6c6ccccc6)cc5)CC3)C2)C4)C(=O)N1 (stereo partly drawn) [Compound B352, 3-(6-((8-(4-((1R,2S)-6-hydroxy-2-phenyl-1,2,3,4-tetrahydronaphthalcn-1-yl)phcnyl)-1-oxa-8-azaspiro[4.5]decan-3-yl)methyl)-1-oxo-3,5,6,7-tetrahydropyrrolo[3,4-f]isoindol-2(1H)-yl)piperidine-2,6-dione]
- IC50 ([1]; T47D cell line): 1 to 10 nM
- DC50 (ER): 10 to 100 nM

Compound: O=C1CCC(N2Cc3cc4c(cc3C2=O)CN(CC2COC3(CCN(c5ccc([C@@H]6c7ccc(O)cc7CC[C@@H]6c6ccccc6)cc5)CC3)OC2)C4)C(=O)N1 (stereo partly drawn) [Compound B355, 3-(6-((9-(4-((1R,2S)-6-hydroxy-2-phenyl-1,2,3,4-tetrahydronaphthalen-1-yl)phenyl)-1,5-dioxa-9-azaspiro[5.5]undecan-3-yl)methyl)-1-oxo-3,5,6,7-tetrahydropyrrolo[3,4-f]isoindol-2(1H)-yl)piperidine-2,6-dione]
- IC50 ([1]; T47D, T47D cell line): < 1 nM
- DC50 (ER): 10 to 100 nM

Compound: O=C1CCC(N2Cc3cc4c(cc3C2=O)OC[C@@H]2CN(CC3CCC5(C3)CN(c3ccc([C@@H]6c7ccc(O)cc7CC[C@@H]6c6ccccc6)cc3)C5)CCN42)C(=O)N1 (stereo partly drawn) [Compound B358, 3-((4aS)-3-((2-(4-((1R,2S)-6-hydroxy-2-phenyl-1,2,3,4-tetrahydronaphthalen-1-yl)phenyl)-2-azaspiro[3.4]octan-6-yl)methyl)-8-oxo-1,2,3,4,4a,5,8,10-octahydro-9H-pyrazino[1′,2′:4,5][1,4]oxazino[2,3-f]isoindol-9-yl)piperidine-2,6-dione]
- IC50 ([1]; T47D, T47D cell line): > 10 nM
- DC50 (ER): 10 to 100 nM

Compound: O=C1CC[C@H](N2Cc3c(ccc4c3OCC43CCN(CC4CCC5(C4)CN(c4ccc([C@@H]6c7ccc(O)cc7CC[C@@H]6c6ccccc6)cc4)C5)CC3)C2=O)C(=O)N1 (stereo partly drawn) [Compound B359, 3-(1′-((2-(4-((1R,2S)-6-hydroxy-2-phenyl-1,2,3,4-tetrahydronaphthalen-1-yl)phenyl)-2-azaspiro[3.4]octan-6-yl)methyl)-6-oxo-6,8-dihydro-2H,7H-spiro[furo[2,3-e]isoindole-3,4′-piperidin]-7-yl)piperidine-2,6-dione]
- IC50 ([1]; T47D): 1 to 10 nM
- DC50 (ER): 10 to 100 nM

Compound: O=C1CC[C@H](NC(=O)c2ccc3c(n2)OC[C@H]2CN(CC4CCC5(C4)CN(c4ccc([C@@H]6c7ccc(O)cc7CC[C@@H]6c6ccccc6)cc4)C5)CCN32)C(=O)N1 (stereo partly drawn) [Compound B360, (4aR)-N-((S)-2,6-dioxopiperidin-3-yl)-3-((2-(4-((1R,2S)-6-hydroxy-2-phenyl-1,2,3,4-tetrahydronaphthalen-1-yl)phenyl)-2-azaspiro[3.4]octan-6-yl)methyl)-1,2,3,4,4a,5-hexahydropyrazino[1,2-d]pyrido[2,3-b][1,4]oxazine-8-carboxamide]
- IC50 ([1]; T47D, T47D cell line): > 10 nM
- DC50 (ER): > 100 nM

Compound: O=C1CCC(N2Cc3cc4c(cc3C2=O)OC[C@@H]2CN(CC3CCC5(CCN(c6ccc([C@@H]7c8ccc(O)cc8CC[C@@H]7c7ccccc7)cc6)CC5)C3)CCN42)C(=O)N1 (stereo partly drawn) [Compound B363, 3-((4aS)-3-((8-(4-((1R,2S)-6-hydroxy-2-phenyl-1,2,3,4-tetrahydronaphthalen-1-yl)phenyl)-8-azaspiro[4.5]decan-2-yl)methyl)-8-oxo-1,2,3,4,4a,5,8,10-octahydro-9H-pyrazino[1′,2′:4,5][1,4]oxazino[2,3-f]isoindol-9-yl)piperidine-2,6-dione]
- IC50 ([1]; T47D, T47D cell line): > 10 nM
- DC50 (ER): 10 to 100 nM

Compound: O=C1CCC(N2Cc3c(ccc4c3OCC43CCN(CC4CCC5(CCN(c6ccc([C@@H]7c8ccc(O)cc8CC[C@@H]7c7ccccc7)cc6)CC5)C4)CC3)C2=O)C(=O)N1 (stereo partly drawn) [Compound B364, 3-(1′-((8-(4-((1R,2S)-6-hydroxy-2-phenyl-1,2,3,4-tetrahydronaphthalen-1-yl)phenyl)-8-azaspiro[4.5]decan-2-yl)methyl)-6-oxo-6,8-dihydro-2H,7H-spiro[furo[2,3-e]isoindole-3,4′-piperidin]-7-yl)piperidine-2,6-dione]
- IC50 ([1]; T47D): 1 to 10 nM
- DC50 (ER): > 100 nM

Compound: O=C1CC[C@H](NC(=O)c2ccc3c(n2)OC[C@H]2CN(CC4CCC5(CCN(c6ccc([C@@H]7c8ccc(O)cc8CC[C@@H]7c7ccccc7)cc6)CC5)C4)CCN32)C(=O)N1 (stereo partly drawn) [Compound B365, (4aR)-N-((S)-2,6-dioxopiperidin-3-yl)-3-((8-(4-((1R,2S)-6-hydroxy-2-phenyl-1,2,3,4-tetrahydronaphthalen-1-yl)phenyl)-8-azaspiro[4.5]decan-2-yl)methyl)-1,2,3,4,4a,5-hexahydropyrazino[1,2-d]pyrido[2,3-b][1,4]oxazine-8-carboxamide]
- IC50 ([1]; T47D, T47D cell line): > 10 nM
- DC50 (ER): 10 to 100 nM
